Measurements published in US20070161592A1, “Method of treating fear” (priority 2005, published 2007).

Legend:
[1] = tested on: adult ACC neurons; assay: LTP induced by EPSPs-APs protocol in ACC slices; assay type: cell-based, mouse; settings: 0.3 μM
Description: (§1) Coronal brain slices ([…]) from 6-8-week-old C57BL/6 mice, containing ACC or hippocampus, were prepared using standard methods (Wei et al., 2001). Slices were transferred to a submerged recovery chamber containing oxygenated (95% O2 and 5% CO2) artificial cerebrospinal fluid (ACSF) (in mM: 124 NaCl, 4.4 KCl, 2 CaCl2, 1 MgSO4, 25 NaHCO3, 1 NaH2PO4, 10 glucose) at room temperature for at least 1 h.
Experiments were performed in a recording chamber on the stage of an Axioskop 2FS microscope with infrared DIC optics for visualizing whole-cell patch clamp recordings. EPSCs were recorded from layer II-III neurons using an Axon 200B amplifier (Axon Instruments, CA) and stimulations were delivered using a bipolar tungsten stimulating electrode placed in layer V of the ACC. In hippocampal slices, EPSCs were evoked by stimulating the Schaffer collateral-commissural pathway. EPSCs were induced by repetitive stimulations at 0.02 Hz and neurons were voltage clamped at −70 mV. The recording pipettes (3-5 MΩ) were filled with solution containing (mM) 145 K-gluconate, 5 NaCl, 1 MgCl2, 0.2 EGTA, 10 HEPES, 2 Mg-ATP, and 0.1 Na3-GTP (adjusted to pH 7.2 with KOH). After obtaining stable EPSCs for 10 min, three kinds of LTP induction paradigms were used within 12 min after establishing the whole-cell configuration to prevent wash out effect on LTP induction (Tsvetkov et al., 2002). The first protocol involved paired presynaptic 80 pulses at 2 Hz with postsynaptic depolarization at +30 mV (referred to as pairing training). The second involved paired 3 presynaptic stimuli that caused 3 EPSPs (10 ms ahead) with 3 postsynaptic APs at 30 Hz, paired 15 times every 5 s (named as EPSPs-APs protocol). The third involved theta-burst stimulation (5 trains of burst with 4 pulses at 100 Hz, at 200 ms interval; repeated 4 times at intervals of 10 s; named as TBS). The NMDAR-mediated component of EPSCs was pharmacologically isolated in Mg^2+-free ACSF containing: CNQX (20 μM), glycine (1 μM) and picrotoxin (100 μM). The patch electrodes contained (in mM) 102 cesium gluconate, 5 TEA-chloride, 3.7 NaCl, 11 BAPTA, 0.2 EGTA, 20 HEPES, 2 MgATP, 0.3 NaGTP, and 5 QX-314 chloride (adjusted to pH 7.2 with CsOH). Neurons were voltage clamped at −60 mV and NMDARs-mediated EPSCs were evoked at 0.05 Hz. Picrotoxin (100 μM) was always present to block GABAA receptor-mediated inhibitory synaptic currents. The access resistance was 15-30 MΩ and was monitored throughout the experiment. Data were discarded if access resistance changed by more than 15% during an experiment. Results are expressed as means±SEM. Statistical comparisons were performed using the Student t-test. […]

[2] = tested on: NMDAR-mediated currents in the hippocampus; assay: NMDAR-mediated EPSCs in hippocampal CA1 neurons; assay type: cell-based, mouse; settings: hippocampus
Description: as §1
Experiments were performed in a recording chamber on the stage of an Axioskop 2FS microscope with infrared DIC optics for visualizing whole-cell patch clamp recordings. EPSCs were recorded from layer II-III neurons using an Axon 200B amplifier (Axon Instruments, CA) and stimulations were delivered using a bipolar tungsten stimulating electrode placed in layer V of the ACC. In hippocampal slices, EPSCs were evoked by stimulating the Schaffer collateral-commissural pathway. EPSCs were induced by repetitive stimulations at 0.02 Hz and neurons were voltage clamped at −70 mV. The recording pipettes (3-5 MΩ) were filled with solution containing (mM) 145 K-gluconate, 5 NaCl, 1 MgCl2, 0.2 EGTA, 10 HEPES, 2 Mg-ATP, and 0.1 Na3-GTP (adjusted to pH 7.2 with KOH). After obtaining stable EPSCs for 10 min, three kinds of LTP induction paradigms were used within 12 min after establishing the whole-cell configuration to prevent wash out effect on LTP induction (Tsvetkov et al., 2002). The first protocol involved paired presynaptic 80 pulses at 2 Hz with postsynaptic depolarization at +30 mV (referred to as pairing training). The second involved paired 3 presynaptic stimuli that caused 3 EPSPs (10 ms ahead) with 3 postsynaptic APs at 30 Hz, paired 15 times every 5 s (named as EPSPs-APs protocol). The third involved theta-burst stimulation (5 trains of burst with 4 pulses at 100 Hz, at 200 ms interval; repeated 4 times at intervals of 10 s; named as TBS). The NMDAR-mediated component of EPSCs was pharmacologically isolated in Mg^2+-free ACSF containing: CNQX (20 μM), glycine (1 μM) and picrotoxin (100 μM). The patch electrodes contained (in mM) 102 cesium gluconate, 5 TEA-chloride, 3.7 NaCl, 11 BAPTA, 0.2 EGTA, 20 HEPES, 2 MgATP, 0.3 NaGTP, and 5 QX-314 chloride (adjusted to pH 7.2 with CsOH). Neurons were voltage clamped at −60 mV and NMDARs-mediated EPSCs were evoked at 0.05 Hz. Picrotoxin (100 μM) was always present to block GABAA receptor-mediated inhibitory synaptic currents. The access resistance was 15-30 MΩ and was monitored throughout the experiment. Data were discarded if access resistance changed by more than 15% during an experiment. Results are expressed as means±SEM. Statistical comparisons were performed using the Student t-test.
One possible mechanism is that NR2B-containing receptors may contribute more to total NMDA currents in ACC synapses than in hippocampal synapses. […] Application of 0.1 μM or 0.4 μM NVP-AAM077 depressed total NMDAR-mediated currents by 59.0±4.3% (n=5) and 63.2±1.7% (n=6) in the ACC respectively (FIG. 5). On the other hand, application of 0.3 μM or 3 μM Ro25-6981 attenuated total NMDAR-mediated currents by 18.0±1.9% (n=5) and 18.1±3.4% (n=7) in the ACC respectively, showing that 0.3 μM Ro25-6981 was sufficient to block the NR2B-mediated currents (FIG. 5). This experiment was repeated in hippocampal CA1 neurons. […] However, unlike in the ACC, application of 0.3 μM Ro25-6981 alone potentiated, rather than blocked, total NMDAR-mediated currents by 51.3±16.4% in the hippocampus (FIG. 5).
The same experiment was repeated in the hippocampus.

`C[C@@H](CN1CCC(Cc2ccccc2)CC1)[C@@H](O)c1ccc(O)cc1` [Ro25-6981] was tested, and the “potentiation after EPSPs-APs protocol, % of baseline” value [1] was 114.4±11.5%, the “effect on LTP induced by EPSPs-APs protocol” value ([1]; FIG. 4B) was “blocked” and the “further reduction of total NMDAR-mediated currents” value ([2]; 0.3 μM Ro25-6981 added to the same neuron after 0.4 μM NVP-AAM077) was 6.6±1.4%. For the same compound, the “potentiation of total NMDAR-mediated currents” value ([2]; 0.3 μM alone) was 51.3±16.4% and the “effect on total NMDAR-mediated currents” value ([2]; bath application, FIG. 5) was “enhanced”.
